We go through one compound from paper PMC10017155 (Aging and Disease, 2023).

Entries after “also recorded” stand apart in the source; their conditions may differ. Peptide text beside a SMILES is read from it.

Assay [1] has as its target T1, immobilized Aβ42 (Homo sapiens, UniProt P05067).
T1 construct: Aβ42 ([…] […]); purchased Biopeptide Co., LLC (San Diego, CA, USA); host or cells: chemical synthesis
Kind of assay: SPR analysis of HAEE binding to immobilized Aβ42. The procedure: All SPR measurements were carried out at 25°C using an optical biosensor Biacore 8K (GE Healthcare, USA) with CM4 optical chip. Covalent immobilization of the peptide ligands on the surface of the optical chip was performed using the sulfhydryl group of the C-terminal tetragly-cylcysteine tag. Briefly, carboxyl groups on the chip surface were activated by serial injections of mixture of 0.4 M EDC/0.1 M NHS at a flow rate of 10 μL/min for 2 min and a solution of 80 mM PDEA in 100 mM borate buffer (pH 8.5) for 4 min. Solutions of 2 μM peptides in the immobilization buffer (10 mM acetate buffer, pH 4.5) were injected for 2 min at a flow rate of 10 μL/min (three repeats). Unreacted activated groups on the chip were blocked by further injection of a solution containing 50 mM cysteine, 1 M NaCl, 0.1 M sodium acetate (pH 4.3) for 4 min at a flow rate of 5 μL/min. Possible nonspecific analyte binding to the chip surface was evaluated using a free (control) channel of the biosensor exposed to the same treatments as the working channel except peptides. SPR signals were recorded in real time in resonance units (RU; 1 RU corresponds to […]) and were presented in the form of sensorgrams showing time-dependent signal changes. […] The obtained sensorgrams were analyzed with BIAevaluation v.4.1 software.

For assay [2], the system named is C. elegans CL2120. Kind of assay: Lifespan analysis, C. elegans CL2120. Format: in vivo. The note with it: for Mean survival: Aβ42 or isoD7-Aβ42 40 μM, HAEE 4 mM; for Increase/decrease in lifespan: vs control of same repeat. The procedure: C. elegans CL2120 (dvIs14 [(pCL12) unc-54::beta 1-42 +(pCL26) mtl-2::GFP]) and C. elegans CL2122 (dvIs15 [(pPD30.38) unc-54(vector) + (pCL26) mtl-2::GFP]) strains were obtained from the Caenorhabditis Genetics Center. The worms were handled according to standard methods without FUDR [18]. E. coli OP50 bacteria were grown overnight in Luria-Bertani broth and 50µl were spread atop NGM or NGMZn plates. NGMZn has 20μM ZnSO4. Seeded plates were incubated at 30°C for ~16 hours and then for 1-2 hours at 15 or 25°C before worms were transferred. Lifespan and paralysis experiments (see below) were performed at 25°C for enhanced expression of Aβ. This temperature is standard when studying the effects of Aβ on C. elegans CL2120 strain [19].
Nematodes were purified from unwanted microflora by the alkaline hypochlorite method, grown to the L4 stage at 15°C on NGM plates with bacterial lawn. […] Further, all contents were transferred to Petri plates with NGM or NGMZn with OP50 and placed in a temperature-controlled incubator at 25°C. Next day, worms were transferred onto similar media with a bacterial substrate and the lifespan was determined at 25°C (Supplementary Tables 3, 4).
Lifespans were monitored at 25°C as described previously. All experiments were repeated at least three times and ≈130 worms were used for each experiment. Details regarding repeated experiments and amounts of animals used for experiments are summarized in Supplementary Tables 3, 4. In all cases, stage L4 worms were used at t = 0 for lifespan analyses and worms were transferred every other day to new agar plates. […] Escaped animals or animals with internal hatching were not included in lifespan calculation. Data was analyzed and Boltzmann sigmoid survival curves generated using the SciDAVis statistical analysis software package. Mean lifespans were compared in Microsoft Excel using the Student t test, applying one-tailed distribution and two-sample equal variance. All lifespan plots represent the composites of all independent experiments tabulated in Supplementary Tables 3, 4. Mean percentage change ±SD of lifespan after treatment, relative to untreated control are indicated in each graph in the same color as the curve.

[3] abbreviates: CL2120, NGM (no Zn), replicate 1.
[4] abbreviates: CL2120, NGM (no Zn), replicate 2.
Setting [5] is: CL2120, NGM (no Zn), replicate 3.

T1 sequence (P05067 672-713): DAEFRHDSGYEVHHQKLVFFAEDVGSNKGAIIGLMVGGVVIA

In turn, `CC(=O)N[C@@H](Cc1c[nH]cn1)C(=O)N[C@@H](C)C(=O)N[C@@H](CCC(=O)O)C(=O)N[C@@H](CCC(=O)O)C(N)=O` [HAEE, Ac-HAEE-NH2] (Ac-HAEE-NH2) registered a Kd in assay [1] of 4.1 ± 0.3 µM. In assay [1] (SPR, 10 mM HEPES, pH 6.8, no Zn2+, 25°C), the “Interaction with immobilized Aβ42 in the absence of Zn2+” value was “no interaction”. For the same compound, in assay [2] (CL2120, HAEE 4 mM), the “Effect of HAEE itself on lifespan” value is listed as “no effect”. Also, the Mean survival in assay [2] (CL2120, NGM (no Zn), 25°C, mean ± SD of 3 experiments) stood at 8.83 ± 0.31 days; in assay [2] (CL2120, NGMZn (ZnSO4 20 μM), 25°C, mean ± SD of 3 (isoD7-Aβ42: 5) experiments), 9.2 ± 0.7 days. Further, the 50% survival in assay [2] (setting [3]) turned out to be 8.5 days; in assay [2] (setting [4]) it was 8.9 days; in assay [2] (setting [5]) it was 9.1 days; in assay [2] (CL2120, NGMZn, replicate 1) it was 9.3 days; in assay [2] (CL2120, NGMZn, replicate 2) it was 9 days; in assay [2] (CL2120, NGMZn, replicate 3), 9.3 days. The “Mean increase/decrease in lifespan” value in assay [2] (CL2120, NGM (no Zn), vs control NGM, mean ± SD of 3 experiments) came to 1.53±0.63%; in assay [2] (CL2120, NGMZn, vs control NGMZn, mean ± SD of 3 (isoD7-Aβ42: 5) experiments) it was 1.85 ±0.66%. Besides, the Increase/decrease in lifespan is 1.19% in assay [2] (setting [3]); 1.14% in assay [2] (setting [4]); 2.25% in assay [2] (setting [5]); 1.09% in assay [2] (CL2120, NGMZn, replicate 1); 2.27% in assay [2] (CL2120, NGMZn, replicate 2); 2.20% in assay [2] (CL2120, NGMZn, replicate 3). Also, the “Effect on lifespan” value in assay [2] (CL2120, NGM, without Zn2+, 25°C) is “do not affect”. Moreover, in assay [2] (CL2120, NGMZn, HAEE 4 mM + isoD7-Aβ42 40 μM), the “Effect of HAEE on lifespan shortened by isoD7-Aβ42 + Zn2+” value was “removes the negative effect; also recorded: completely restored the shortened lifespan”.
